Reference: patent publication US20210363124A1, “HETEROCYCLYL POLYMETHINE IR CHROMOPHORES” (The Regents of the University of California, priority 2018, published 2021)
Entries after “also recorded” stand apart in the source; their conditions may differ. One block for each molecule: values may come before it.

Experiments:
Type in all cases: physicochemical
[1] = Photobleaching under continuous-wave irradiation (532 nm, 0.53 fluence); settings: for photostability (in words): dichloromethane, 532 nm irradiation
Experimental: Photostabilities of the Flav series were measured under continuous-wave irradiation (532 nm, 0.53 fluence).
(§1) Polymethine dyes disclosed herein are characterized with respect to their photophysics including absorption, emission, extinction coefficient, quantum yields, and fluorescence lifetime. All quantum yields values obtained are absolute quantum yields values measured using an integrating sphere. Photostabilities are evaluated by sample irradiation with high powered LEDs. Additionally, solvatochromism, solvent compatibility, and stability are assessed.

[2] = Absorption spectra of flavylium dyes in dichloromethane (UV-Visible/NIR spectrophotometer)
Experimental: (§2) The absorption, emission, and photostability properties of flavylium dyes 3-6 were measured.
(§3) The absorbance spectra in FIG. 2 and FIGS. 4A-4G were obtained in DCM on a JASCO V-770 UV-Visible/NIR spectrophotometer with a 2000 nm/min or 4000 nm/min scan rate. Plotted are the baseline corrected and normalized data. The emission spectra in FIG. 2 were taken in DCM on either a Horiba Instruments PTI QuantaMaster Series fluorometer (6), a Fluoromax-3 spectrofluorometer (1, 3-5), or home-built InGaAs array detector (Princeton Instruments). For 6 the following parameters were used: ex. 610 nm, emission collected from 620-900 nm, slits 5 nm, step size 1 nm, integration time 1 s. Plotted is the DCM corrected, baseline corrected, normalized data. For 1, and 3-5, the following parameters were used: slits 5 nm, step size 1 nm, integration time, 0.25 s. […]
as §1

[3] = Emission spectra and absolute fluorescence quantum yield in dichloromethane (integrating sphere)
Experimental: as §2
Finally, the photoluminescence of Flav7 was compared to the prominent SWIR polymethine dyes, IR-26 and IR-1061. IR-26 has been widely-employed as a standard for this region, while IR-1061 has recently been the active component of nanomaterials for NIR-II in vivo imaging. Despite numerous studies which rely on these dyes, the reported ΦF for IR-26 have been inconsistent, and the ΦF of IR-1061 has yet to be thoroughly characterized. Consequently, to establish that Flav7 is more emissive than existing SWIR polymethine dyes, each dye's emission was directly compared using a SWIR camera. We prepared solutions of 3, IR-26, and IR-1061 in dichloromethane with identical absorbance at 808 nm, excited with a diffuse 808 nm laser, and imaged their emission over 1000-1500 nm.
as §3, §1

SMILES: CN(C)c1ccc2c(c1)OC(c1ccccc1)=C/C2=C\C=C\c1cc(-c2ccccc2)[o+]c2cc(N(C)C)ccc12.[O-][Cl+3]([O-])([O-])[O-] [Dye 5, 7-(Dimethylamino)-4-((E)-3-((E)-7-(dimethylamino)-2-phenyl-4H-chromen-4-ylidene)prop-1-en-1-yl)-2-phenylchromenylium perchlorate]
- photostability (in words) [1]: excellent photostabilities
- photostability relative to HITCI ([1]; more photostable than HITCI): 4 fold

SMILES: CN(C)c1ccc2c(c1)OC(c1ccccc1)=C\C2=C/C=C/C=C/c1cc(-c2ccccc2)[o+]c2cc(N(C)C)ccc12.[O-][Cl+3]([O-])([O-])[O-] [Dye 4, 7-(dimethylamino)-4-((1E,3E)-5-((E)-7-(dimethylamino)-2-phenyl-4H-chromen-4-ylidene)penta-1,3-dien-1-yl)-2-phenylchromenylium perchlorate]
- photostability (in words) ([1]; listed as Flav5): excellent photostabilities; also recorded: desirable photostability

Now from value to molecule:

- absorption (DCM) λmax [2]: ~745 nm
- absorption (DCM) ε ([2]; at λmax): ~220,000 M^−1cm^−1
- ΦF relative to Flav3 ([3]; higher ΦF than Flav3): ~10 fold
SMILES: CN1C(=CC=CC=CC=CC2=[N+](C)c3ccccc3C2(C)C)C(C)(C)c2ccccc21.[I-] [HITCI, 1,1′,3,3,3′,3′-hexamethylindotricarbocyanine iodide]

- emission (DCM) λmax ([3]; dichloromethane): 1081 nm
- ΦF ([3]; dichloromethane, absolute quantum yield): 0.32±0.04%
SMILES: ClC1=C(/C=C/c2cc(-c3ccccc3)[s+]c(-c3ccccc3)c2)CCC/C1=C/C=C1C=C(c2ccccc2)SC(c2ccccc2)=C1.F[B-](F)(F)F [IR-1061]

- photostability (in words) [1]: excellent photostabilities
SMILES: CN(C)c1ccc2c(c1)OC(c1ccccc1)=C/C2=C\c1cc(-c2ccccc2)[o+]c2cc(N(C)C)ccc12.O=C([O-])C(F)(F)F [Dye 6, (E)-7-(Dimethylamino)-4-((7-(dimethylamino)-2-phenyl-4H-chromen-4-ylidene)methyl)-2-phenylchromenylium 2,2,2-trifluoroacetate]
